Measured values as given in patent publication US11413266B2, “Use of cannabinoids in the treatment of inflammatory skin diseases” (GW Pharma Limited, priority 2015, dated 2022).

What was measured:
[1] = system: IL8; assay: PolyIC-induced IL8 release in NHEK keratinocytes, ELISA; format: cell-based, human; conditions: NHEKs; concentration not singled out (0.3 and 3 μM tested)
[2] = system: HaCaT cells; assay: Cell viability of HaCaT cells (MTT); format: cell-based, human; conditions: 20 μM
Description: Cell viability was measured after 6 h in HaCaT cells treated with CBD (20 μM) or vehicle by using the 3-(4,5-dimethylthiazol-2yl)-2,5-diphenyl tetrazolium bromide (MTT) colorimetric assay.
Briefly, after 6 h HaCaT cells were incubated with MTT (5 mg·ml-1) for 3 h at 37° C. in 5% CO2. After 3 h HaCaT cells were lysed with DMSO and incubated for 6 h at 37° C. in 5% CO2.
Absorbance was measured at 630 nm. Results are expressed as % of cell viability, where optical density values from vehicle-treated cells were defined as 100% of cell viability.

[3] = system: IL6; assay: PolyIC-induced IL6 release in NHEK keratinocytes, ELISA; format: cell-based, human; conditions: NHEKs; concentration not singled out (0.3 and 3 μM tested)
[4] = system: MCP-2; assay: MCP-2 ELISA in supernatants of poly-(I:C)-stimulated HaCaT cells; format: cell-based, human
[5] = system: DNFB-induced allergic contact dermatitis (ACD); assay: DNFB-induced allergic contact dermatitis (ACD) in mice, ear swelling; format: in vivo
Description: A total of 10 animals per group were used in the experiments described here.
Briefly, DNFB was diluted in acetone/olive oil (4:1 by vol.) immediately before use and eight-ten week-old female C57BL/6J mice were sensitized by painting 50 μl of 0.2% DNFB on the shaved abdomen on two consecutive days. Then, mice were challenged by painting 10 μl of 0.3% DNFB on both sides of one ear on day 5.
Ear swelling was measured 24, 48 and 72 h after this first challenge by measuring the difference in ear thickness between the unchallenged and the challenged ear using an engineer's micrometer. CBD (2.5, -5- and 10 mg·kg-1) was administered intraperitoneally (i.p.) on day 5 (the day of the first challenge with DNFB), 6 and, 7 after the initial sensitization with DNFB. CBD was dissolved in DMSO and Tween-20 1%.
For the determination of MCP-2, endocannabinoids, PEA and OEA, group means were compared using the one-way ANOVA followed by Newman-Keuls multiple comparison test or the Student's t-test. For the determination of cell viability, group means were compared using the Student's t-test. All determinations were performed at least in triplicate. For the determination of ear thickness, group means were compared using the one-way ANOVA followed by Tukey-Kramer multiple comparison test (n=10).

[6] = system: IL8; assay: UVB-induced IL8 release in HaCaT keratinocytes, ELISA; format: cell-based, human; conditions: 0.3 μM
[7] = system: human sebocytes; conditions: Oláh et al., 2014; cited from earlier work
[8] = system: human epidermal keratinocytes; assay: Summary score, TLR3-induced inflammation model (microbial infection-induced dermatitis); format: cell-based; conditions: sum of +1 anti-inflammatory, 0 no effect, −1 pro-inflammatory, Table 1
[9] = system: human epidermal keratinocytes; assay: Summary score, UVB-induced inflammation model (solar dermatitis); format: cell-based; conditions: sum of +1 anti-inflammatory, 0 no effect, −1 pro-inflammatory, Table 2
[10] = system: HPV-Ker keratinocytes; assay: Summary score, SEB/TSLP-induced inflammation model (atopic dermatitis); format: cell-based, human; conditions: sum of +1 anti-inflammatory, 0 no effect, −1 pro-inflammatory, Table 3
[11] = system: 2-AG; assay: 2-AG levels in poly-(I:C)-stimulated HaCaT cells (LC-APCI-MS); format: cell-based, human; conditions: CBD 20 μM, 6 h
Description: (§1) HaCaT cells were plated into six-well culture plates at a cell density of 9×10^5 cells per well, and after 1 day were stimulated with poly-(I:C) (100 μg·ml-1) and treated with CBD (20 μM) or vehicle, and incubated for 6 h at 37° C. in 5% CO2.
(§2) After 6 h the resulting cells and supernatants were subjected to measurement of endocannabinoids such as N-arachidonoyl-ethanolamine (anandamide, AEA) and 2-arachidonoyl-glycerol (2-AG), and related N-acylethanolamines such as PEA and N oleoylethanolamine (OEA).
(§3) Cells and supernatants were homogenized in a solution of chloroform/methanol/Tris-HCl 50 mM pH 7.4 (2:1:1 by vol.) containing 10 pmol of [2H]8-AEA, and 5 pmol of [2H]5-2-AG, [2H]4-PEA and [2H]2-OEA as internal deuterated standards. The lipid-containing organic phase was pre-purified by open-bed chromatography on silica gel, and fractions obtained by eluting the column with a solution of chloroform/methanol (90:10 by vol.) were analyzed by liquid chromatography-atmospheric pressure chemical ionization-mass spectrometry (LC-APCI-MS) by using a Shimadzu HPLC apparatus (LC-10ADVP) coupled to a Shimadzu (LCMS-2020) quadrupole MS via a Shimadzu APCI interface. […]

[12] = system: IL6; assay: UVB-induced IL6 mRNA expression in HaCaT keratinocytes, RT-qPCR; format: cell-based, human; conditions: 0.3 μM
[13] = system: IL8; assay: UVB-induced IL8 mRNA expression in HaCaT keratinocytes, RT-qPCR; format: cell-based, human
[14] = system: IL6; assay: UVB-induced IL6 release in HaCaT keratinocytes, ELISA; format: cell-based, human; conditions: 3 μM
[15] = system: OEA; assay: OEA levels in poly-(I:C)-stimulated HaCaT cells (LC-APCI-MS); format: cell-based, human; conditions: CBD 20 μM, 6 h
Description: as §1, §2, §3

[16] = system: AEA; assay: AEA levels in poly-(I:C)-stimulated HaCaT cells (LC-APCI-MS); format: cell-based, human; conditions: CBD 20 μM, 6 h
Description: as §1, §2, §3

## C=C(C)[C@@H]1CCC(C)=C[C@H]1c1c(O)cc(CCCCC)cc1O [CBD, Cannabidiol]
[1]
  PolyIC-induced elevated release of IL8: dose-dependent suppression
[2]
  cytotoxicity: not cytotoxic
[3]
  PolyIC-induced elevated release of IL6: dose-dependent suppression
[4]; 20 μM, poly-(I:C)-stimulated HaCaT, 6 h
  MCP-2 production: maximum effect
[4]; 1, 5, 10 and 20 μM, poly-(I:C) 100 μg·ml-1, 6 h, vs vehicle
  MCP-2 protein levels: strong concentration-dependent reduction
[4]; compound alone, 20 μM, absence of poly-(I:C), vs vehicle-treated HaCaT, data not shown
  MCP-2 protein levels: no significant variation
[4]; poly-(I:C)-stimulated keratinocytes
  potency in the inhibition of MCP-2 chemokine production relative to other phytocannabinoids tested: more potent
[5]; 2.5 mg·kg-1 i.p.
  ear thickness: did not show any statistically significant effect
[5]; 5 mg·kg-1 i.p.
  ear thickness: did not show any statistically significant effect
[5]; 10 mg·kg-1 i.p. on day 5, 6 and 7, 48 h after first challenge, vs control mice
  ear thickness: reduced
[5]; 10 mg·kg-1 i.p. on day 5, 6 and 7, 72 h after first challenge, vs control mice
  ear thickness: reduced
[6]
  UVB-upregulated IL8 (ELISA): anti-inflammatory effects
[7]
  anti-acne effects: exerted anti-acne effects
[8]; 0.3 μM
  SCORE: 5
[8]; 3 μM
  SCORE: 8
[9]; 0.3 μM
  SCORE: 5
[9]; 3 μM
  SCORE: 1
[10]; 0.3 μM
  SCORE: −1
[10]; 3 μM
  SCORE: 1
[11]
  2-AG levels: No consistent effect
[12]
  UVB-upregulated IL6 (RT-qPCR): anti-inflammatory effects
[13]; 0.3 μM
  UVB-upregulated IL8 (RT-qPCR): anti-inflammatory effects
[13]; 3 μM
  UVB-upregulated IL8 (RT-qPCR): pro-inflammatory effects
[14]
  UVB-upregulated IL6 (ELISA): anti-inflammatory effects
[15]
  OEA levels: No consistent effect
[16]
  AEA levels, increase compared to poly-(I:C)-stimulated HaCaT cells: −2.7 fold
  AEA levels, increase compared to vehicle-treated HaCaT cells: −8 fold
